SMILES strings stand for the structures. ≈ marks a conversion by molar mass, not a printed value. Read-outs that look alike come from different tables or passages of the source.

The subject of data set [1] is S.aureus Smith. The experiment in a line: CD50, protection of mice infected with a lethal inoculum. Type of data set: in vivo. The settings on record: for ED50: Staphylococcus aureus, read-out: Total CD50. An excerpt:
(§1) The following Table gives CD50 values obtained after infecting groups of mice with a lethal inoculum of various bacteria and treating the mice with the compounds quoted. The CD50 value then represents the amount of compound necessary to protect 50% of the animals.

For data set [2], the system named is S.agalactiae 2798. The data set is described as above. Type of data set: in vivo. Particulars: for ED50: read-out: Total CD50.
From the text: as §1

The subject of data set [3] is E.coli 96 R-. The data set is described as above. Type of data set: in vivo. Particulars: for ED50: Escherichia coli, 96R, read-out: Total CD50.
From the text: as §1

The test system of data set [4] is S.agalactiae 2798. As to the kind of experiment: MIC against the infecting strain (Table 4). Type of data set: cell-based. Particulars: Streptococcus agalactiae.
Data set [5] has as its system S.aureus Smith. The experiment in a line: MIC against the infecting strain (Table 4). The settings on record: Staphylococcus aureus. Type of data set: cell-based.
The subject of data set [6] is E.coli 96 R-. The experiment in a line: MIC against the infecting strain (Table 4). In kind it is cell-based. The settings on record: Escherichia coli.
For data set [7], the system named is S.pyogenes CN 10. The experiment in a line: Minimum Inhibitory Concentration (MIC), agar dilution. Type of data set: cell-based. The settings on record: 5% v/v horse blood agar, two-fold dilutions, read after 24 hours; unit assumed. Here is the method: (§2) The following Table gives Minimum Inhibitory Concentration (MIC) values for some of the compounds of the invention against S.pyogenes CN 10 and E.coli NCTC 10418. The E. coli was grown in tryptone soya broth and the S. pyogenes was grown in Todd Hewitt broth. The microorganisms were grown for 24hours and lul samples were then inoculated on to agar plates (comprising 5% v/v live horse blood agar) to which had been added the compounds of the invention at a series of two-fold dilutions.

For data set [8], the system named is E.coli NCTC 10418. The data set is described as above. Type of data set: cell-based. The settings on record: 5% v/v horse blood agar, two-fold dilutions, read after 24 hours; unit assumed. The procedure: as §2
Data set [9] in a line: Squirrel monkey plasma levels. Type of data set: in vivo. Particulars: for concentration at 0.25 h: 15 minutes, read-out: Plasma Levels, Time in Minutes 15; for concentration at 0.5 h: 30 minutes, read-out: Plasma Levels, Time in Minutes 30; for concentration at 1 h: 60 minutes, read-out: Plasma Levels, Time in Minutes 60; for concentration at 2 h: 120 minutes, read-out: Plasma Levels, Time in Minutes 120; for concentration at 4 h: 240 minutes, read-out: Plasma Levels, Time in Minutes 240; for concentration at 6 h: 360 minutes, read-out: Plasma Levels, Time in Minutes 360; for AUC: read-out: Area under the curve.

Where [10] appears, read: Streptococcus agalactiae, 2798, po, S.agalactiae 2798, p.o.

A word on the MIC: it is the smallest concentration in the dilution series that meets the test's criterion for growth inhibition. With `C=C(C)[C@@H](N)C(=O)N[C@@H]1C(=O)N2[C@@H]1SC(C)(C)[C@@H]2C(=O)O` [Example 6, 6,β-(D-2-Amino-3-methylbut-3-enamido)penicillanic-acid], the ED50 was 0.08 mg/kg in data set [1] (po); 0.15 mg/kg in data set [1] (sc); 3.6 mg/kg in data set [2] (setting [10]); 1.5 mg/kg in data set [2] (Streptococcus agalactiae, 2798, sc, S.agalactiae 2798, s.c.); 32 mg/kg in data set [3] (po). Further, the “Total CD50” value in data set [1] (p.o.) was determined as 0.10 mg/kg; in [2] (S.agalactiae 2798, p.o.), 3.8 mg/kg; in data set [2] (S.agalactiae 2798, s.c.) it was 1.1 mg/kg; in data set [3] (p.o.), 40 mg/kg. Also, the MIC in [4] turned out to be 0.25 µg/mL (≈ 0.798 µM); in data set [5] it was 0.12 µg/mL (≈ 0.383 µM); in [6] it was 4 µg/mL (≈ 12.8 µM). The compound further came in with an MIC S. pyogenes CN 10 in data set [7] of less than 0.03 µg/mL. Besides, the MIC E. coli NCTC 10418 in [8] is 2 µg/mL (≈ 6.38 µM). The concentration at 0.25 h in data set [9] is 8700 ng/mL. Further, in data set [9], the concentration at 0.5 h came to 16400 ng/mL. For the same compound, in data set [9], the concentration at 1 h was determined as 20000 ng/mL. In addition, the concentration at 2 h in data set [9] is 13000 ng/mL. Besides, the concentration at 4 h in data set [9] amounted to 2200 ng/mL. Besides, the concentration at 6 h in data set [9] amounted to 900 ng/mL. Besides, the AUC in data set [9] worked out at 46500 ng·h/mL.

As to `CC1(C)S[C@@H]2[C@H](NC(=O)[C@H](N)C=C(Cl)Cl)C(=O)N2[C@H]1C(=O)O` [Example 5 (D-stereoisomer), 6β-(D-2-amino-4,4-dichlorobut-3-enamido)penicillanic acid], the ED50 in data set [1] (sc) came to 0.08 mg/kg; in data set [2] (setting [10]) it was 0.9 mg/kg; in data set [3] (po), 40 mg/kg; in data set [3] (sc), 22 mg/kg. Besides, the “Total CD50” value in data set [1] (s.c.) is given as 0.09 mg/kg; in [2] (S.agalactiae 2798, p.o.), 0.6 mg/kg. The MIC stood at 0.06 µg/mL (≈ 0.163 µM) in data set [4], 0.06 µg/mL (≈ 0.163 µM) in [5] and 2 µg/mL (≈ 5.43 µM) in [6]. Besides, the MIC S. pyogenes CN 10 in data set [7] is less than 0.03 µg/mL. Besides, in [8], the MIC E. coli NCTC 10418 worked out at 2 µg/mL (≈ 5.43 µM). In data set [9], the concentration at 0.25 h turned out to be 20700 ng/mL. Also, the concentration at 0.5 h in [9] came out at 28800 ng/mL. For the same compound, the concentration at 1 h in [9] came out at 24300 ng/mL. Moreover, in [9], the concentration at 2 h worked out at 16800 ng/mL. The concentration at 4 h in [9] was 2400 ng/mL. In addition, the concentration at 6 h in data set [9] was found to be 1400 ng/mL. In addition, the AUC in data set [9] is 63000 ng·h/mL.

These data come from patent publication EP0209237A2, “Vinyl-glycyl-amino-beta-lactam derivatives” (BEECHAM GROUP PLC, priority 1985, dated 1987).
